Assay results reported in PubChem BioAssay AID248 (DTP/NCI, 2004).
Values joined by “and” are separate entries in the source; they are usually repeats but may differ in a detail not shown here. Equal entries are not always repeated. Toxic doses and inconclusive results are not listed.

System: L1210 leukemia ip in BDF1 mice, survival T/C
Assay: NCI In Vivo Anticancer Drug Screen. Data for tumor model L1210 Leukemia (intraperitoneal) in B6D2F1 (BDF1) mice
Settings: higher = longer survival
Summary of the method: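 Mice bearing the transplanted tumor received compound or vehicle. Survival of the treated group was divided by that of the vehicle-treated control group to give the ratio.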

[1] = endpoint: mean survival time, dose: 100.0 mg/kg/injection, schedule: Q01DX009 (ip), vehicle: Klucel (hydroxypropylcellulose) (HPC)
[2] = endpoint: mean survival time, dose: 200.0 mg/kg/injection, schedule: Q01DX009 (ip), vehicle: Klucel (hydroxypropylcellulose) (HPC)
[3] = endpoint: mean survival time, dose: 400.0 mg/kg/injection, schedule: Q01DX009 (ip), vehicle: Klucel (hydroxypropylcellulose) (HPC)

## O=C(O)CCCc1ccc(N(CCCl)CCCl)cc1
endpoint: mean survival time, dose: 0.5 mg/kg/injection, schedule: Q01DX009 (ip), vehicle: saline with Tween-80
  T/C: 101 % of control and 104 % of control
endpoint: mean survival time, dose: 1.0 mg/kg/injection, schedule: Q01DX009 (ip), vehicle: saline with Tween-80
  T/C: 96 % of control and 106 % of control
endpoint: mean survival time, dose: 1.0 mg/kg/injection, schedule: Q04DX002 (ip), vehicle: saline with Tween-80
  T/C: 95 % of control and 105 % of control
endpoint: mean survival time, dose: 1.0 mg/kg/injection, schedule: Q12HX018 (ip), vehicle: saline with Tween-80
  T/C: 107 % of control
endpoint: mean survival time, dose: 1.81 mg/kg/injection, schedule: Q01DX Z (ip), vehicle: carboxymethylcellulose (CMC)
  T/C: 103 % of control
endpoint: mean survival time, dose: 2.0 mg/kg/injection, schedule: Q01DX009 (ip), vehicle: saline with Tween-80
  T/C: 103 % of control and 107 % of control
endpoint: mean survival time, dose: 2.0 mg/kg/injection, schedule: Q04DX002 (ip), vehicle: saline with Tween-80
  T/C: 100 % of control and 105 % of control
endpoint: mean survival time, dose: 2.0 mg/kg/injection, schedule: Q08HX027 (ip), vehicle: acetone
  T/C: 120 % of control
endpoint: mean survival time, dose: 2.0 mg/kg/injection, schedule: Q12HX018 (ip), vehicle: acetone
  T/C: 110 % of control and 111 % of control and 121 % of control
endpoint: mean survival time, dose: 2.0 mg/kg/injection, schedule: Q12HX018 (ip), vehicle: saline with Tween-80
  T/C: 115 % of control
endpoint: mean survival time, dose: 2.5 mg/kg/injection, schedule: Q01DX001 (ip), vehicle: carboxymethylcellulose (CMC)
  T/C: 112 % of control
endpoint: mean survival time, dose: 3.62 mg/kg/injection, schedule: Q01DX Z (ip), vehicle: carboxymethylcellulose (CMC)
  T/C: 106 % of control
endpoint: mean survival time, dose: 4.0 mg/kg/injection, schedule: Q01DX009 (ip), vehicle: acetone
  T/C: 112 % of control and 123 % of control
endpoint: mean survival time, dose: 4.0 mg/kg/injection, schedule: Q01DX009 (ip), vehicle: saline with Tween-80
  T/C: 100 % of control and 115 % of control
endpoint: mean survival time, dose: 4.0 mg/kg/injection, schedule: Q04DX002 (ip), vehicle: saline with Tween-80
  T/C: 96 % of control and 102 % of control
endpoint: mean survival time, dose: 4.0 mg/kg/injection, schedule: Q12HX018 (ip), vehicle: Klucel (hydroxypropylcellulose) (HPC)
  T/C: 115 % of control
endpoint: mean survival time, dose: 4.0 mg/kg/injection, schedule: Q12HX018 (ip), vehicle: acetone
  T/C: 122 % of control
endpoint: mean survival time, dose: 4.0 mg/kg/injection, schedule: Q12HX018 (ip), vehicle: other
  T/C: 112 % of control and 121 % of control
endpoint: mean survival time, dose: 4.0 mg/kg/injection, schedule: Q12HX018 (ip), vehicle: saline with Tween-80
  T/C: 124 % of control
endpoint: mean survival time, dose: 5.0 mg/kg/injection, schedule: Q01DX001 (ip), vehicle: carboxymethylcellulose (CMC)
  T/C: 103 % of control
endpoint: mean survival time, dose: 5.0 mg/kg/injection, schedule: Q08HX027 (ip), vehicle: acetone
  T/C: 90 % of control
endpoint: mean survival time, dose: 5.8 mg/kg/injection, schedule: Q01DX Z (ip), vehicle: carboxymethylcellulose (CMC)
  T/C: 101 % of control and 103 % of control
endpoint: mean survival time, dose: 6.0 mg/kg/injection, schedule: Q12HX018 (ip), vehicle: Klucel (hydroxypropylcellulose) (HPC)
  T/C: 116 % of control
endpoint: mean survival time, dose: 6.0 mg/kg/injection, schedule: Q12HX018 (ip), vehicle: acetone
  T/C: 162 % of control
endpoint: mean survival time, dose: 6.0 mg/kg/injection, schedule: Q12HX018 (ip), vehicle: other
  T/C: 120 % of control
endpoint: mean survival time, dose: 6.0 mg/kg/injection, schedule: Q12HX018 (ip), vehicle: saline with Tween-80
  T/C: 120 % of control
endpoint: mean survival time, dose: 6.25 mg/kg/injection, schedule: Q01DX Z (ip), vehicle: carboxymethylcellulose (CMC)
  T/C: 113 % of control
endpoint: mean survival time, dose: 7.25 mg/kg/injection, schedule: Q01DX Z (ip), vehicle: carboxymethylcellulose (CMC)
  T/C: 98 % of control and 103 % of control and 120 % of control
endpoint: mean survival time, dose: 8.0 mg/kg/injection, schedule: Q01DX009 (ip), vehicle: saline with Tween-80
  T/C: 115 % of control and 116 % of control
endpoint: mean survival time, dose: 8.0 mg/kg/injection, schedule: Q04DX002 (ip), vehicle: saline with Tween-80
  T/C: 96 % of control and 98 % of control
endpoint: mean survival time, dose: 8.0 mg/kg/injection, schedule: Q12HX018 (ip), vehicle: Klucel (hydroxypropylcellulose) (HPC)
  T/C: 114 % of control and 118 % of control
endpoint: mean survival time, dose: 8.0 mg/kg/injection, schedule: Q12HX018 (ip), vehicle: acetone
  T/C: 100 % of control
endpoint: mean survival time, dose: 8.0 mg/kg/injection, schedule: Q12HX018 (ip), vehicle: saline with Tween-80
  T/C: 118 % of control
endpoint: mean survival time, dose: 9.66 mg/kg/injection, schedule: Q01DX Z (ip), vehicle: carboxymethylcellulose (CMC)
  T/C: 100 % of control and 114 % of control
endpoint: mean survival time, dose: 10.0 mg/kg/injection, schedule: Q01DX001 (ip), vehicle: carboxymethylcellulose (CMC)
  T/C: 109 % of control
endpoint: mean survival time, dose: 10.0 mg/kg/injection, schedule: Q12HX018 (ip), vehicle: acetone
  T/C: 88 % of control
endpoint: mean survival time, dose: 12.0 mg/kg/injection, schedule: Q01DX009 (ip), vehicle: acetone
  T/C: 122 % of control
endpoint: mean survival time, dose: 12.0 mg/kg/injection, schedule: Q12HX018 (ip), vehicle: Klucel (hydroxypropylcellulose) (HPC)
  T/C: 103 % of control and 121 % of control
endpoint: mean survival time, dose: 12.0 mg/kg/injection, schedule: Q12HX018 (ip), vehicle: saline with Tween-80
  T/C: 109 % of control
endpoint: mean survival time, dose: 12.5 mg/kg/injection, schedule: Q01DX Z (ip), vehicle: carboxymethylcellulose (CMC)
  T/C: 110 % of control
endpoint: mean survival time, dose: 14.5 mg/kg/injection, schedule: Q01DX Z (ip), vehicle: carboxymethylcellulose (CMC)
  T/C: 114 % of control and 117 % of control
endpoint: mean survival time, dose: 16.0 mg/kg/injection, schedule: Q01DX009 (ip), vehicle: acetone
  T/C: 101 % of control and 115 % of control
endpoint: mean survival time, dose: 16.0 mg/kg/injection, schedule: Q01DX009 (ip), vehicle: saline with Tween-80
  T/C: 121 % of control
endpoint: mean survival time, dose: 16.0 mg/kg/injection, schedule: Q04DX002 (ip), vehicle: saline with Tween-80
  T/C: 100 % of control and 108 % of control
endpoint: mean survival time, dose: 16.0 mg/kg/injection, schedule: Q12HX018 (ip), vehicle: Klucel (hydroxypropylcellulose) (HPC)
  T/C: 92 % of control
endpoint: mean survival time, dose: 18.0 mg/kg/injection, schedule: Q01DX001 (ip), vehicle: carboxymethylcellulose (CMC)
  T/C: 105 % of control
endpoint: mean survival time, dose: 20.0 mg/kg/injection, schedule: Q01DX001 (ip), vehicle: carboxymethylcellulose (CMC)
  T/C: 115 % of control
endpoint: mean survival time, dose: 20.0 mg/kg/injection, schedule: Q01DX009 (ip), vehicle: acetone
  T/C: 92 % of control
endpoint: mean survival time, dose: 20.0 mg/kg/injection, schedule: Q12HX018 (ip), vehicle: Klucel (hydroxypropylcellulose) (HPC)
  T/C: 89 % of control
endpoint: mean survival time, dose: 25.0 mg/kg/injection, schedule: Q01DX Z (ip), vehicle: carboxymethylcellulose (CMC)
  T/C: 116 % of control
endpoint: mean survival time, dose: 27.0 mg/kg/injection, schedule: Q01DX001 (ip), vehicle: carboxymethylcellulose (CMC)
  T/C: 109 % of control
endpoint: mean survival time, dose: 27.0 mg/kg/injection, schedule: Q01DX001 (ip), vehicle: saline with Tween-80
  T/C: 113 % of control and 115 % of control
endpoint: mean survival time, dose: 31.0 mg/kg/injection, schedule: Q04DX002 (ip), vehicle: saline with Tween-80
  T/C: 108 % of control and 109 % of control
endpoint: mean survival time, dose: 40.0 mg/kg/injection, schedule: Q01DX001 (ip), vehicle: carboxymethylcellulose (CMC)
  T/C: 115 % of control
endpoint: mean survival time, dose: 41.0 mg/kg/injection, schedule: Q01DX001 (ip), vehicle: carboxymethylcellulose (CMC)
  T/C: 114 % of control
endpoint: mean survival time, dose: 41.0 mg/kg/injection, schedule: Q01DX001 (ip), vehicle: saline with Tween-80
  T/C: 115 % of control and 121 % of control
endpoint: median survival time, dose: 3.0 mg/kg/injection, schedule: Q01DX009 (ip), vehicle: saline
  T/C: 99 % of control
endpoint: median survival time, dose: 6.0 mg/kg/injection, schedule: Q01DX009 (ip), vehicle: saline
  T/C: 105 % of control
endpoint: median survival time, dose: 12.0 mg/kg/injection, schedule: Q01DX009 (ip), vehicle: saline
  T/C: 96 % of control
endpoint: median survival time, dose: 24.0 mg/kg/injection, schedule: Q01DX009 (ip), vehicle: saline
  T/C: 89 % of control

## COc1cccc(C(=O)C(CCC#N)c2ccccc2)c1 (centres undefined)
[1]
  T/C: 98 % of control
endpoint: mean survival time, dose: 100.0 mg/kg/injection, schedule: Q04DX003 (ip), vehicle: Klucel (hydroxypropylcellulose) (HPC)
  T/C: 106 % of control
[2]
  T/C: 98 % of control
endpoint: mean survival time, dose: 200.0 mg/kg/injection, schedule: Q04DX003 (ip), vehicle: Klucel (hydroxypropylcellulose) (HPC)
  T/C: 100 % of control
[3]
  T/C: 96 % of control
endpoint: mean survival time, dose: 400.0 mg/kg/injection, schedule: Q04DX003 (ip), vehicle: Klucel (hydroxypropylcellulose) (HPC)
  T/C: 95 % of control

## OCC(Oc1ccccc1)C(O)C(O)C(CO)Oc1ccccc1 (centres undefined)
[1]
  T/C: 103 % of control
[2]
  T/C: 103 % of control
[3]
  T/C: 95 % of control

## CCCN1CSC(=S)N(Cc2ccccc2)C1
endpoint: mean survival time, dose: 100.0 mg/kg/injection, schedule: Q04DX003 (ip), vehicle: saline with Tween-80
  T/C: 95 % of control
endpoint: mean survival time, dose: 200.0 mg/kg/injection, schedule: Q04DX003 (ip), vehicle: saline with Tween-80
  T/C: 93 % of control
endpoint: mean survival time, dose: 400.0 mg/kg/injection, schedule: Q04DX003 (ip), vehicle: saline with Tween-80
  T/C: 90 % of control

## CC(=O)NC1C(OC(=O)c2ccccc2)OC2COCOC2C1OC(=O)c1ccccc1 (centres undefined)
endpoint: mean survival time, dose: 100.0 mg/kg/injection, schedule: Q01DX001 (ip), vehicle: saline with Tween-80
  T/C: 90 % of control
endpoint: mean survival time, dose: 200.0 mg/kg/injection, schedule: Q01DX001 (ip), vehicle: saline with Tween-80
  T/C: 97 % of control
endpoint: mean survival time, dose: 400.0 mg/kg/injection, schedule: Q01DX001 (ip), vehicle: saline with Tween-80
  T/C: 92 % of control

## CCOC(=O)CCc1nc2ccc3ccccc3c2c(=O)[nH]1
endpoint: mean survival time, dose: 100.0 mg/kg/injection, schedule: Q04DX002 (ip), vehicle: Klucel (hydroxypropylcellulose) (HPC)
  T/C: 88 % of control
endpoint: mean survival time, dose: 200.0 mg/kg/injection, schedule: Q04DX002 (ip), vehicle: Klucel (hydroxypropylcellulose) (HPC)
  T/C: 91 % of control
endpoint: mean survival time, dose: 400.0 mg/kg/injection, schedule: Q04DX002 (ip), vehicle: Klucel (hydroxypropylcellulose) (HPC)
  T/C: 94 % of control

## CCCOP(=S)(N1CC1)N1CC1
endpoint: mean survival time, dose: 44.0 mg/kg/injection, schedule: Q01DX001 (ip), vehicle: saline
  T/C: 114 % of control
